As a reminder, the KD is the equilibrium constant for the complex coming apart.

The text below walks through data of paper PMC9496453 (2022).

The subject of assay [1] is OTC5 (DNA, aptamer) GACGACATTCCGTTGATCTCTCCCTTTTGGGTTGGTGTCGTC
The experiment in a line: intrinsic fluorescence enhancement titration. As to conditions: 50 mM NaCl, 2 mM MgCl2, 10 mM Tris HCl pH 8.3, binding lost without Mg2+.

Assay [2] shares this test system. Briefly: ITC. As to conditions: 2 mM Mg2+; 10 mM Tris pH 8.3; 0.2 μM at pH 6.0 (10 mM MES).

Each structure is given as a SMILES string.

On to `CN(C)[C@@H]1C(=O)C(C(N)=O)=C(O)[C@@]2(O)C(=O)C3=C(O)c4c(O)cccc4[C@@](C)(O)[C@H]3C[C@@H]12`, for which, in assay [1] (0.36 µM at acidic pH (printed 6.3)), the KD came to 0.16 µM.

Turning to `CN(C)[C@@H]1C(=O)C(C(N)=O)=C(O)[C@@]2(O)C(=O)C3=C(O)c4c(O)cccc4[C@@](C)(O)[C@H]3[C@H](O)[C@@H]12`, the values for the KD in assay [1] (0.14 µM at acidic pH (printed 6.3)) and in assay [2] were 0.06 µM and 0.03 µM, respectively.

For the compound `C[C@H]1c2cccc(O)c2C(=O)C2=C(O)[C@]3(O)C(=O)C(C(N)=O)=C(O)[C@@H](N(C)C)[C@@H]3[C@@H](O)[C@@H]21`, the KD in assay [1] (0.39 µM at pH 6.0) came out at 0.24 µM.
